Laboratory results reported in US20250034132A1, “PROLYL HYDROXYLASE DOMAIN-CONTAINING PROTEIN (PHD) INHIBITORS AND USES THEREOF” (Insilico Medicine IP Limited, priority 2021, published 2025).

Biological target: PHD2 (Homo sapiens, UniProt Q9GZT9)
Assay: PHD2 enzymatic assay (AlphaScreen)
Assay type: biochemical
Conditions: IC50 from % inhibition

PHD2, sequence (Q9GZT9 whole entry): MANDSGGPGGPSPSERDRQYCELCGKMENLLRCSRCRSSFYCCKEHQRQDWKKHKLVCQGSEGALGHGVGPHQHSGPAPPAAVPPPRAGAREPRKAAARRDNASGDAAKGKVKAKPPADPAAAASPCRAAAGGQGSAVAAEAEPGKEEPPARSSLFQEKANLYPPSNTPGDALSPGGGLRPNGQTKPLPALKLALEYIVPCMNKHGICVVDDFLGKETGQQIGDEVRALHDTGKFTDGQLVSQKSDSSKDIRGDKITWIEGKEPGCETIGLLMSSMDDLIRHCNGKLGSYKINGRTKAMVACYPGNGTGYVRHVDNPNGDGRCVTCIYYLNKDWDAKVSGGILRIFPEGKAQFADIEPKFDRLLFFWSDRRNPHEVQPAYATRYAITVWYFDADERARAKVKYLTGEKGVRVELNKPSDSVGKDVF

- IC50: < 5 nM
SMILES: N#Cc1ccc(CNC(=O)c2ncc3nc(N4CC(N)C4)ccc3c2O)cn1 [Example 132]
